# From ChEMBL document CHEMBL1146287, “New carbon-linked azole oxazolidinones with improved potency and pharmacokinetics” (Bioorg Med Chem Lett, 2007)
# System: not listed separately
# Test: Oral bioavailability in rat at 40 mg/kg
# Format: ADME, organism-based
# Conditions: in vivo
row,bioavailability [%],SMILES
1,82,Cc1cc(-c2ccc(N3C[C@H](Cn4ccnn4)OC3=O)cc2F)on1
2,87,Cc1cn(C[C@H]2CN(c3ccc(-c4cc(C)no4)c(F)c3)C(=O)O2)nn1

# System: Streptococcus pneumoniae
# Test: Antimicrobial activity against streptococcus pneumoniae by broth dilution method
# Format: functional
# Conditions: not given
row,SMILES,MIC [µg/mL]
1,N#CCn1cc(-c2ccc(N3C[C@H](Cn4ccnn4)OC3=O)cc2F)nn1,2
2,CC(=O)NC[C@H]1CN(c2ccc(-c3c[nH]nn3)c(F)c2)C(=O)O1,2
3,O=C1O[C@@H](Cn2ccnn2)CN1c1ccc(-c2c[nH]nn2)c(F)c1,32
4,Cn1cc(-c2ccc(N3C[C@H](Cn4ccnn4)OC3=O)cc2F)nn1,16
5,O=C1O[C@@H](CNc2ccon2)CN1c1ccc(-c2c[nH]nn2)c(F)c1,16

# Other lines, results leading:
row,MIC [µg/mL],SMILES
1,0.25,Cc1cc(-c2ccc(N3C[C@H](CNc4ccon4)OC3=O)cc2F)on1
2,0.25,Cc1cc(-c2ccc(N3C[C@H](Cn4ccnn4)OC3=O)cc2F)on1
3,0.25,Cc1cn(C[C@H]2CN(c3ccc(-c4cc(C)no4)c(F)c3)C(=O)O2)nn1
4,0.25,CC(=O)NC[C@H]1CN(c2ccc(-c3cc(C)no3)c(F)c2)C(=O)O1

# System: Staphylococcus aureus
# Test: Antimicrobial activity against staphylococcus aureus by broth dilution method
# Format: functional
# Conditions: not given
row,SMILES,MIC [µg/mL]
1,N#CCn1cc(-c2ccc(N3C[C@H](Cn4ccnn4)OC3=O)cc2F)nn1,4
2,CC(=O)NC[C@H]1CN(c2ccc(-c3c[nH]nn3)c(F)c2)C(=O)O1,4
3,O=C1O[C@@H](Cn2ccnn2)CN1c1ccc(-c2c[nH]nn2)c(F)c1,64
4,Cn1cc(-c2ccc(N3C[C@H](Cn4ccnn4)OC3=O)cc2F)nn1,32
5,O=C1O[C@@H](CNc2ccon2)CN1c1ccc(-c2c[nH]nn2)c(F)c1,8

# The remaining lines, values ahead:
row,MIC [µg/mL],SMILES
1,0.5,Cc1cc(-c2ccc(N3C[C@H](CNc4ccon4)OC3=O)cc2F)on1
2,0.5,Cc1cc(-c2ccc(N3C[C@H](Cn4ccnn4)OC3=O)cc2F)on1
3,0.5,Cc1cn(C[C@H]2CN(c3ccc(-c4cc(C)no4)c(F)c3)C(=O)O2)nn1
4,0.5,CC(=O)NC[C@H]1CN(c2ccc(-c3cc(C)no3)c(F)c2)C(=O)O1

# Molecular target: T1, Amine oxidase [flavin-containing] A (Homo sapiens, UniProt P21397)
# T1 sequence (P21397 whole entry): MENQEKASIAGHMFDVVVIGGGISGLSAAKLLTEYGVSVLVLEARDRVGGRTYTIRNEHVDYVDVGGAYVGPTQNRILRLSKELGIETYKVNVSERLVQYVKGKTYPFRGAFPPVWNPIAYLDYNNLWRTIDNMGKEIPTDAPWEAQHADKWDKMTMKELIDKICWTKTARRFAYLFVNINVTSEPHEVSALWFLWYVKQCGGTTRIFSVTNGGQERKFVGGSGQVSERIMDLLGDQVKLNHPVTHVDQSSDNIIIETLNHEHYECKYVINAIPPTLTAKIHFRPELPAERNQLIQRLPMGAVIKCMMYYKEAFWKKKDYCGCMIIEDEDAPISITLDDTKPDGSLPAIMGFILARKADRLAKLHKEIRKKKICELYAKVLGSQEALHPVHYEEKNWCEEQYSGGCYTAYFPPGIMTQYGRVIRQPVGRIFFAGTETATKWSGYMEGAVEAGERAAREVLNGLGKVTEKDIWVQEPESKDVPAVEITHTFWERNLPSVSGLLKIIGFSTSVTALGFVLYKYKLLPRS
# Test: Inhibition human liver MAOA activity
# Conditions: not given
row,Ki [µmol],SMILES
1,0.42,Cc1cc(-c2ccc(N3C[C@H](CNc4ccon4)OC3=O)cc2F)on1
2,2.9,Cc1cc(-c2ccc(N3C[C@H](Cn4ccnn4)OC3=O)cc2F)on1
3,22.6,Cc1cn(C[C@H]2CN(c3ccc(-c4cc(C)no4)c(F)c3)C(=O)O2)nn1
4,0.95,CC(=O)NC[C@H]1CN(c2ccc(-c3cc(C)no3)c(F)c2)C(=O)O1

row,SMILES,Ki [µmol]
1,CC(=O)NC[C@H]1CN(c2ccc(N3CCOCC3)c(F)c2)C(=O)O1 [LINEZOLID],20

# System: not listed separately
# Test: Half life in rat
# Format: ADME, organism-based
# Conditions: in vivo
row,half-life [h],SMILES
1,1.7,Cc1cc(-c2ccc(N3C[C@H](Cn4ccnn4)OC3=O)cc2F)on1
2,1.2,Cc1cn(C[C@H]2CN(c3ccc(-c4cc(C)no4)c(F)c3)C(=O)O2)nn1

# System: Mus musculus
# Test: Antibacterial activity against Streptococcus pneumoniae ARC548 infected C57BL/6 mouse lung at 25 mg/kg, po after 2 days relative to Linezolid
# Format: functional
# Conditions: not given
row,SMILES,Lung antibacterial activity relative to linezolid [%]
1,Cc1cc(-c2ccc(N3C[C@H](CNc4ccon4)OC3=O)cc2F)on1,33
2,Cc1cc(-c2ccc(N3C[C@H](Cn4ccnn4)OC3=O)cc2F)on1,92
3,CC(=O)NC[C@H]1CN(c2ccc(-c3cc(C)no3)c(F)c2)C(=O)O1,22
4,CC(=O)NC[C@H]1CN(c2ccc(N3CCOCC3)c(F)c2)C(=O)O1 [LINEZOLID],75

# System: not listed separately
# Test: Plasma clearance in rat
# Format: ADME, organism-based
# Conditions: not given
row,clearance [mL/min/kg],SMILES
1,5,Cc1cc(-c2ccc(N3C[C@H](Cn4ccnn4)OC3=O)cc2F)on1
2,5,Cc1cn(C[C@H]2CN(c3ccc(-c4cc(C)no4)c(F)c3)C(=O)O2)nn1

# System: Haemophilus influenzae
# Test: Antimicrobial activity against Haemophilus influenzae by broth dilution method
# Format: functional
# Conditions: not given
row,SMILES,MIC [µg/mL]
1,N#CCn1cc(-c2ccc(N3C[C@H](Cn4ccnn4)OC3=O)cc2F)nn1,32
2,CC(=O)NC[C@H]1CN(c2ccc(-c3c[nH]nn3)c(F)c2)C(=O)O1,8
3,O=C1O[C@@H](Cn2ccnn2)CN1c1ccc(-c2c[nH]nn2)c(F)c1,> 64
4,Cn1cc(-c2ccc(N3C[C@H](Cn4ccnn4)OC3=O)cc2F)nn1,> 64
5,O=C1O[C@@H](CNc2ccon2)CN1c1ccc(-c2c[nH]nn2)c(F)c1,16
6,CC(=O)NC[C@H]1CN(c2ccc(N3CCOCC3)c(F)c2)C(=O)O1 [LINEZOLID],8

# More lines, now with the values ahead:
row,MIC [µg/mL],SMILES
1,16,Cc1cc(-c2ccc(N3C[C@H](CNc4ccon4)OC3=O)cc2F)on1
2,8,Cc1cc(-c2ccc(N3C[C@H](Cn4ccnn4)OC3=O)cc2F)on1
3,4,Cc1cn(C[C@H]2CN(c3ccc(-c4cc(C)no4)c(F)c3)C(=O)O2)nn1
4,4,CC(=O)NC[C@H]1CN(c2ccc(-c3cc(C)no3)c(F)c2)C(=O)O1

# System: not listed separately
# Test: Volume of distribution in rat
# Format: ADME, organism-based
# Conditions: in vivo, read-out: Vss
row,Vd [L/kg],SMILES
1,0.6,Cc1cc(-c2ccc(N3C[C@H](Cn4ccnn4)OC3=O)cc2F)on1
2,0.5,Cc1cn(C[C@H]2CN(c3ccc(-c4cc(C)no4)c(F)c3)C(=O)O2)nn1
